Consider four compounds from patent US4382958A, “Secondary amines and compositions for treatment of hypoglycaemia or obesity” (priority 1980, dated 1983).

Where two headings read alike, the source gives them in different places.

Experiment [1] has as its system Female CFLP mice. The experiment is described as follows: Effect on energy expenditure and food intake of mice. In kind it is in vivo. Particulars: Mus musculus, % of mice dosed with water; for response vs control in vivo at 18.5 mg/kg: 18.5 mg/kg po; for response vs control in vivo at 20 mg/kg: 20.0 mg/kg po; for response vs control in vivo at 22.2 mg/kg: 22.2 mg/kg po; for response vs control in vivo at 24.5 mg/kg: 24.5 mg/kg po. On the procedure:
Female CFLP mice each weighing approximately 24 g were given food and water ad lib before and during the experiment. The compounds were dissolved in water by addition of one mole of hydrochloric acid per mole of compound and these solutions were administered orally to each of 12 mice. A further 12 mice were dosed orally with water. The mice were placed in boxes through which air was drawn and the oxygen content of the air leaving the boxes was measured. The energy expenditure of the mice was calculated for 21 hours after dosing from the volume of air leaving the boxes and its oxygen content following the principles described by J. B. de V. Weir, J. Physiol. […] The food intake of the mice was measured over this same period of 21 hours. The results are expressed as a percentage of the mean food intake or rate of energy expenditure of the mice dosed with water.

Experiment [2] has as its system Rat hearts. The experiment is described as follows: Cardiac activity: rat hearts perfused by the Langendorff procedure. The procedure:
Rat hearts were perfused by the Langendorff procedure.
Hearts were dissected free within 30 seconds of death and reverse perfused via the aorta and coronary vessels with Krebs-Ringer bicarbonate solution (pH 7.4, 37° C.) gassed with 95% oxygen: 5% carbon dioxide at a flow rate between 8-12 cm^3 /minute. Responses were observed after injection of drug dissolved in isotonic saline into the perfusion media.
Results are expressed as a percentage of the maximum response due to salbutamol.

The test system of experiment [3] is Female CFLP mice. In words: Hypoglycaemic activity: blood glucose of fasted mice after subcutaneous glucose. In kind it is in vivo. To be noted: Mus musculus, 2 hour period after glucose, vs control mice given water, read-out: REDUCTION IN AREA UNDER BLOOD GLUCOSE CURVE (%); for inhibition in vivo at 1 µmol/kg: 1.0 μ mol/kg oral. The procedure: Female CFLP mice, weighing approximately 25 g, were fasted for 24 hours prior to the study. The compounds under study were administered orally as an aqueous solution to each of 8 mice. 30 minutes later a blood sample ([…]) was obtained from the tail for the analysis of blood glucose. Immediately after taking this blood sample, glucose (1 g/kg body weight) was administered subcutaneously to each mouse. 8 mice were given water as a control. Blood samples were then obtained from each mouse at 30 minute intervals for 120 minutes.
Compounds that produced a significant (P<0.05) reduction on blood glucose, compared with control mice given water, at any time interval, were considered active. The area under the blood glucose curve over the 2 hour period after the administration of the glucose was calculated for each compound and compared with the value for control animals.

Experiment [4] deals with rat ear. The experiment is described as follows: Topical anti-inflammatory activity: croton oil inflammation of the rat ear. In kind it is in vivo. To be noted: 6 hours, activity = significant (5% level) reduction in ear weight vs non-drug treated control. On the procedure: The method used is based on that described by G. Tonelli et al (Endocrinology, 77, 625-634, 1965). An inflammation is induced in the rat ear by the application of 50 μl of a 1% solution of croton oil in tetrahydrofuran, test compounds being dissolved in the irritant vehicle. After 6 hours the inflammation is assessed by killing the animals and weighing the ears. Topical anti-inflammatory activity of a compound is generally considered to be shown when a significant (5% level) reduction in ear weight is seen compared to non-drug treated control.

Experiment [5] concerns Platelet aggregation (response to collagen). In words: Platelet aggregation inhibition activity: response to intravenous collagen in mice. In kind it is in vivo. Particulars: 1 μ mol/kg po; two hours before collagen 400 μg/kg i.v. The procedure: Male CFLP mice (ca 20 g, n=8) were dosed orally with compound or vehicle (controls) after an overnight fast. Two hours later each mouse received an intravenous dose of collagen (400 μg/kg, pH 6-6.6). Exactly 30 sec. after injection of collagen, each mouse was placed in a chamber of CO2 until respiration ceased. […] Each concentration was expressed as a percent of that obtained in a tail blood sample taken immediately before injection of collagen.

Experiment [6] concerns genetically obese mice. The experiment is described as follows: Anti-obesity activity: carcass lipid of genetically obese mice after oral gavage daily for 28 days. To be noted: 12.2 mg/kg p.o. daily for 28 days, control 18.75. In kind it is in vivo. On the procedure: The compound of Example 5 was administered by oral gavage in water or carboxymethyl-cellulose suspension to genetically obese mice daily for 28 days. At the end of the time the carcass composition was determined.

[7] abbreviates: 0-3h, read-out: MEAN ENERGY EXPENDITURE (%) 0-3h.
Setting [8] is: 0-21h, read-out: MEAN ENERGY EXPENDITURE (%) 0-21h.
The mark [9] stands for this setting: over 21 hours, read-out: MEAN FOOD INTAKE (%).
Where [10] appears, read: 30 μg added to perfusate, percentage of the maximum response due to salbutamol, read-out: HEART RATE.
Where [11] appears, read: 30 μg added to perfusate, percentage of the maximum response due to salbutamol, read-out: HEART TENSION.

`CC(Cc1ccc(OCCO)cc1)NCC(O)c1ccccc1F` (centres unmarked) [Example 1, N-[2-(4-(2-Hydroxyethoxy)phenyl)-1-methylethyl]-2-hydroxy-2-(2-fluorophenyl)ethanamine]: the response vs control in vivo at 18.5 mg/kg came out at 176% in experiment [1] (setting [7]), 128% in experiment [1] (setting [8]) and 70% in experiment [1] (setting [9]). Moreover, the Emax was 63% in experiment [2] (setting [10]) and 53% in experiment [2] (setting [11]). Also, the inhibition in vivo at 3 µmol/kg in experiment [3] (3.0 μ mol/kg oral) worked out at 61%. Also, the “ACTIVITY (topical anti-inflammatory)” value in experiment [4] (2 mg/rat ear topical) is recorded as “Active”.
For `CC(Cc1ccc(OCCO)cc1)NCC(O)c1cccc(C(F)(F)F)c1` (centres unmarked) [Example 3, N-[2-(4-(2-Hydroxyethoxy)-phenyl)-1-methylethyl]-2-hydroxy-2-(3-trifluoromethylphenyl)ethanamine], the results for the response vs control in vivo at 20 mg/kg in experiment [1] (setting [7]), in experiment [1] (setting [8]) and in experiment [1] (setting [9]) were 178%, 134% and 82%, respectively. Also, the Emax amounted to 17% in experiment [2] (setting [10]) and 50% in experiment [2] (setting [11]). Moreover, the inhibition in vivo at 2.5 µmol/kg in experiment [3] (2.5 μ mol/kg oral) was determined as 52%. In experiment [5], the “% INHIBITION OF RESPONSE TO COLLAGEN” value was determined as 47%.
For the compound `CC(Cc1ccc(OCCCO)cc1)NCC(O)c1cccc(C(F)(F)F)c1` (centres unmarked) [Example 4, N-[2-(4-(3-Hydroxypropoxy)phenyl)-1-methylethyl]-2-hydroxy-2-(3-trifluoromethylphenyl)-ethanamine], the results for the response vs control in vivo at 22.2 mg/kg in experiment [1] (setting [7]), in experiment [1] (setting [8]) and in experiment [1] (setting [9]) were 179%, 121% and 75%, respectively. Besides, the results for the Emax in experiment [2] (setting [10]) and in experiment [2] (read-out: HEART TENSION) were 7% and 0%, respectively. Besides, in experiment [3], the inhibition in vivo at 1 µmol/kg came out at 31%. Moreover, the “ACTIVITY (topical anti-inflammatory)” value in experiment [4] (0.5 mg/rat ear topical) is recorded as “Active”.
As to `CC(Cc1ccc(OCCCCCCO)cc1)NCC(O)c1cccc(C(F)(F)F)c1` (centres unmarked) [Example 5, N-[2-(4-(6-Hydroxyhexyloxy)phenyl)-1-methylethyl]-2-hydroxy-2-(3-trifluoromethylphenyl)-ethanamine], the “g LIPID/MOUSE, TREATED” value in experiment [6] is recorded as 15.80 g LIPID/MOUSE. Also, the response vs control in vivo at 24.5 mg/kg is 213% in experiment [1] (setting [7]), 129% in experiment [1] (setting [8]) and 103% in experiment [1] (setting [9]). In addition, the Emax in experiment [2] (setting [10]) and in experiment [2] (setting [11]) was 0% throughout. Moreover, the inhibition in vivo at 1 µmol/kg in experiment [3] is 59%. In addition, the “% INHIBITION OF RESPONSE TO COLLAGEN” value in experiment [5] was 47%.
